Reference: publication PMC8079033, “Design, synthesis, anticancer evaluation, and molecular modelling studies of novel tolmetin derivatives as potential VEGFR-2 inhibitors and apoptosis inducers” (Journal of Enzyme Inhibition and Medicinal Chemistry, 2021)

What was measured:
SR = experiment: NCI 60-cell line one-dose antiproliferative screen (SRB); type: cell-based; details: Homo sapiens, read-out: growth inhibition % (GI%)
Description: (§1) Anticancer activity screening of the newly synthesised compounds was measured in vitro utilising 60 different human tumour cell lines provided by US National Cancer Institute according to previously reported standard procedure[41–43] as follows: Cells are inoculated into 96-well microtiter plates in 100 ml. After cell inoculation, the microtiter plates are incubated at 37 °C, 5% CO2, 95% air, and 100% relative humidity for 24 h prior to addition of experimental compounds. After 24 h, two plates of each cell line are fixed in situ with TCA, to represent a measurement of the cell population for each cell line at the time of compound addition (Tz). Experimental compounds are solubilised in dimethyl sulfoxide at 400-fold the desired final maximum test concentration and stored frozen prior to use. At the time of compound addition, an aliquot of frozen concentrate is thawed and diluted to twice the desired final maximum test concentration with a complete medium containing […] gentamicin. Aliquots of […] of the compounds dilutions are added to the appropriate microtiter wells already containing 100 ml of medium, resulting in the required final compound concentration. Following compound addition, the plates are incubated for an additional 48 h at 37 °C, 5% CO2, 95% air, and 100% relative humidity. For adherent cells, the assay is terminated by the addition of cold trichloroacetic acid (TCA). Cells are fixed in situ by the gentle addition of 50 ml of cold 50% (w/v) TCA (final concentration, 10% TCA) and incubated for […] at 4 °C. The supernatant is discarded, and the plates are washed five times with tap water and air-dried. Sulforhodamine B (SRB) solution (100 ml) at 0.4% (w/v) in 1% acetic acid is added to each well, and plates are incubated for 10 min at room temperature. After staining, the unbound dye is removed by washing five times with 1% acetic acid and the plates are air-dried. The bound stain is subsequently solubilised with a 10 mM trizma base, and the absorbance is read on an automated plate reader at a wavelength of 515 nm. For suspension cells, the methodology is the same except that the assay is terminated by fixing settled cells at the bottom of the wells by gently adding 50 ml of 80% TCA (final concentration, 16% TCA). Using the absorbance measurements [time zero, (Tz), control growth, (C), and test growth in the presence of compound (Ti)], the percentage growth is calculated for each compound. The One-dose data are reported as a mean graph of the percent growth of treated cells. The reported number is growth relative to the no-compound control, and relative to the time zero number of cells. This allows the detection of both growth inhibition and lethality.
(§2) Fifteen newly synthesised compounds were tested for their in vitro antiproliferative activity by the National Cancer Institute (NCI), Maryland, USA[50], under the Developmental Therapeutic Program (DTP)[41]^,[43]^,[51]^,[52]. The tested compounds were evaluated at a concentration of 10 µM on a panel of 60 tumour cell lines representing leukaemia and non-small cell lung, colon, CNS, melanoma, ovarian, renal, prostate, and breast cancers. The antiproliferative activity was presented by the NCI as percent growth of the treated cells and is presented in Table 1 as growth inhibition percentage (GI%) achieved by the tested compounds.

U251 = experiment: as above; type: cell-based; details: Homo sapiens, U-251, read-out: growth inhibition % (GI%)
Description: as §1, §2

UO-31 = experiment: as above; type: cell-based; details: Homo sapiens, read-out: growth inhibition % (GI%)
Description: as §1, §2

KM12 = experiment: as above; type: cell-based; details: Homo sapiens, read-out: growth inhibition % (GI%)
Description: as §1, §2

K-562 = experiment: as above; type: cell-based; details: Homo sapiens, K562, read-out: growth inhibition % (GI%)
Description: as §1, §2

LOX IMVI = experiment: as above; type: cell-based; details: Homo sapiens, read-out: growth inhibition % (GI%)
Description: as §1, §2

PC-3 = experiment: as above; type: cell-based; details: Homo sapiens, read-out: growth inhibition % (GI%)
Description: as §1, §2

OVCAR-5 = experiment: as above; type: cell-based; details: Homo sapiens, read-out: growth inhibition % (GI%)
Description: as §1, §2

UACC-257 = experiment: as above; type: cell-based; details: Homo sapiens, read-out: growth inhibition % (GI%)
Description: as §1, §2

A549/ATCC = experiment: as above; type: cell-based; details: Homo sapiens, read-out: growth inhibition % (GI%)
Description: as §1, §2

SK-MEL-5 = experiment: as above; type: cell-based; details: Homo sapiens, read-out: growth inhibition % (GI%)
Description: as §1, §2

SF-539 = experiment: as above; type: cell-based; details: Homo sapiens, read-out: growth inhibition % (GI%)
Description: as §1, §2

SK-OV-3 = experiment: as above; type: cell-based; details: Homo sapiens, read-out: growth inhibition % (GI%)
Description: as §1, §2

ACHN = experiment: as above; type: cell-based; details: Homo sapiens, read-out: growth inhibition % (GI%)
Description: as §1, §2

SNB-19 = experiment: as above; type: cell-based; details: Homo sapiens, read-out: growth inhibition % (GI%)
Description: as §1, §2

T-47D = experiment: as above; type: cell-based; details: Homo sapiens, T47D, read-out: growth inhibition % (GI%)
Description: as §1, §2

786-0 = experiment: as above; type: cell-based; details: Homo sapiens, read-out: growth inhibition % (GI%)
Description: as §1, §2

CAKI-1 = experiment: as above; type: cell-based; details: Homo sapiens, read-out: growth inhibition % (GI%)
Description: as §1, §2

OVCAR-8 = experiment: as above; type: cell-based; details: Homo sapiens, read-out: growth inhibition % (GI%)
Description: as §1, §2

NCI-H226 = experiment: as above; type: cell-based; details: Homo sapiens, read-out: growth inhibition % (GI%)
Description: as §1, §2

NCI/ADR-RES = experiment: as above; type: cell-based; details: Homo sapiens, read-out: growth inhibition % (GI%)
Description: as §1, §2

HCT-15 = experiment: as above; type: cell-based; details: Homo sapiens, read-out: growth inhibition % (GI%)
Description: as §1, §2

MALME-3M = experiment: as above; type: cell-based; details: Homo sapiens, read-out: growth inhibition % (GI%)
Description: as §1, §2

EKVX = experiment: as above; type: cell-based; details: Homo sapiens, read-out: growth inhibition % (GI%)
Description: as §1, §2

SF-268 = experiment: as above; type: cell-based; details: Homo sapiens, read-out: growth inhibition % (GI%)
Description: as §1, §2

RPMI-8226 = experiment: as above; type: cell-based; details: Homo sapiens, read-out: growth inhibition % (GI%)
Description: as §1, §2

A498 = experiment: as above; type: cell-based; details: Homo sapiens, read-out: growth inhibition % (GI%)
Description: as §1, §2

SW-620 = experiment: as above; type: cell-based; details: Homo sapiens, read-out: growth inhibition % (GI%)
Description: as §1, §2

OVCAR-4 = experiment: as above; type: cell-based; details: Homo sapiens, read-out: growth inhibition % (GI%)
Description: as §1, §2

SF-295 = experiment: as above; type: cell-based; details: Homo sapiens, read-out: growth inhibition % (GI%)
Description: as §1, §2

UACC-62 = experiment: as above; type: cell-based; details: Homo sapiens, read-out: growth inhibition % (GI%)
Description: as §1, §2

MDA-MB-231/ATCC = experiment: as above; type: cell-based; details: Homo sapiens, read-out: growth inhibition % (GI%)
Description: as §1, §2

IGROV1 = experiment: as above; type: cell-based; details: Homo sapiens, IGROV-1, read-out: growth inhibition % (GI%)
Description: as §1, §2

HOP-62 = experiment: as above; type: cell-based; details: Homo sapiens, read-out: growth inhibition % (GI%)
Description: as §1, §2

HCT-116 = experiment: as above; type: cell-based; details: Homo sapiens, read-out: growth inhibition % (GI%)
Description: as §1, §2

NCI-H522 = experiment: as above; type: cell-based; details: Homo sapiens, read-out: growth inhibition % (GI%)
Description: as §1, §2

MOLT-4 = experiment: as above; type: cell-based; details: Homo sapiens, read-out: growth inhibition % (GI%)
Description: as §1, §2

MCF7 = experiment: as above; type: cell-based; details: Homo sapiens, read-out: growth inhibition % (GI%)
Description: as §1, §2

HOP-92 = experiment: as above; type: cell-based; details: Homo sapiens, read-out: growth inhibition % (GI%)
Description: as §1, §2

HL-60 (TB) = experiment: as above; type: cell-based; details: Homo sapiens, read-out: growth inhibition % (GI%)
Description: as §1, §2

HS 578 T = experiment: as above; type: cell-based; details: Homo sapiens, read-out: growth inhibition % (GI%)
Description: as §1, §2

NCI-H460 = experiment: as above; type: cell-based; details: Homo sapiens, read-out: growth inhibition % (GI%)
Description: as §1, §2

NCI-H23 = experiment: as above; type: cell-based; details: Homo sapiens, read-out: growth inhibition % (GI%)
Description: as §1, §2

SNB-75 = experiment: as above; type: cell-based; details: Homo sapiens, read-out: growth inhibition % (GI%)
Description: as §1, §2

SN 12 C = experiment: as above; type: cell-based; details: Homo sapiens, SN12C, read-out: growth inhibition % (GI%)
Description: as §1, §2

## Cc1ccc(C(=O)c2ccc(CC(=O)NN=Cc3cc4ccccc4[nH]3)n2C)cc1 [Compound 5e, N′-((1H-Indol-2-yl)methylene)-2–(1-methyl-5–(4-methylbenzoyl)-1H-pyrrol-2-yl) acetohydrazide]
SR
  inhibition at 10 µM: < 10%
U251
  inhibition at 10 µM: < 10%
UO-31
  inhibition at 10 µM: 40.4%
KM12
  inhibition at 10 µM: < 10%
K-562
  inhibition at 10 µM: < 10%
LOX IMVI
  inhibition at 10 µM: 10.7%
PC-3
  inhibition at 10 µM: 10.9%
OVCAR-5
  inhibition at 10 µM: < 10%
UACC-257
  inhibition at 10 µM: < 10%
A549/ATCC
  inhibition at 10 µM: < 10%
SK-MEL-5
  inhibition at 10 µM: < 10%
SF-539
  inhibition at 10 µM: < 10%
SK-OV-3
  inhibition at 10 µM: 12.1%
ACHN
  inhibition at 10 µM: < 10%
SNB-19
  inhibition at 10 µM: 17.3%
T-47D
  inhibition at 10 µM: 29.4%
786-0
  inhibition at 10 µM: < 10%
CAKI-1
  inhibition at 10 µM: 15.8%
OVCAR-8
  inhibition at 10 µM: < 10%
NCI-H226
  inhibition at 10 µM: 15.3%
NCI/ADR-RES
  inhibition at 10 µM: < 10%
HCT-15
  inhibition at 10 µM: 12.6%
MALME-3M
  inhibition at 10 µM: < 10%
EKVX
  inhibition at 10 µM: 25.7%
SF-268
  inhibition at 10 µM: < 10%
RPMI-8226
  inhibition at 10 µM: < 10%
A498
  inhibition at 10 µM: 10.9%
SW-620
  inhibition at 10 µM: < 10%
OVCAR-4
  inhibition at 10 µM: 19.3%
SF-295
  inhibition at 10 µM: < 10%
UACC-62
  inhibition at 10 µM: 15.8%
MDA-MB-231/ATCC
  inhibition at 10 µM: 20.5%
IGROV1
  inhibition at 10 µM: 45.5%
HOP-62
  inhibition at 10 µM: 24%
HCT-116
  inhibition at 10 µM: < 10%
NCI-H522
  inhibition at 10 µM: 18.9%
MOLT-4
  inhibition at 10 µM: < 10%
MCF7
  inhibition at 10 µM: 22.1%
HOP-92
  inhibition at 10 µM: 10.3%
HL-60 (TB)
  inhibition at 10 µM: < 10%
HS 578 T
  inhibition at 10 µM: < 10%
NCI-H460
  inhibition at 10 µM: < 10%
NCI-H23
  inhibition at 10 µM: 15.4%
SNB-75
  inhibition at 10 µM: 15.3%
SN 12 C
  inhibition at 10 µM: 10.5%
other
  melting point: 198 to 200 °C
